# Results: patent US20230000842A1, “METHODS OF TREATING CARTILAGE DISORDERS THROUGH INHIBITION OF CLK AND DYRK” (SAMUMED, LLC, priority 2019, published 2023)
# Legend:
# [1] = system: primary human mesenchymal stem cells (hMSCs); assay: Chondrogenesis screening using primary human mesenchymal stem cells; format: cell-based; conditions: Homo sapiens, Mesenchymal stem cells
# Procedure, shortened: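 Primary hMSCs at passage 3–6 were treated across compound concentrations, with TGF-β3 as positive control. Chondrogenic nodule area per well was normalized to 3 DMSO wells on the same plate (fold over DMSO, 2–3 replicates). EC50, maximum activity and the dose reaching it were derived.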
# [2] = system: cartilage of MIA injected rats; assay: Monosodium iodoacetate (MIA) injection induced OA model, cartilage Western blot; format: in vivo, rat; conditions: 4 days after single IA injection
# Description: Western blots for phospho-SRSF, SRSF1, AXIN2, phospho-NF-κB, total NFκB, phospho-STAT3, total STAT3, phospho-FOXO1 and total FOXO1 in the cartilage, with β-actin as a loading control.
# Male Sprague Dawley (SD) rats (250 g±30 g) (Charles River, Wilmington, Mass.) were used for all animal studies. All animals were treatment naïve at the start of the studies. Procedures were performed during the hours of 8 am-5 pm on weekdays in a sterile hood in the vivarium. Rats were housed in individual ventilated cages (≤3 per cage) under the following conditions:
# For cytokine, MMP, histology (H&E and Safranin O-Fast Green staining), OARSI scores and weight bearing measurements: At 10 weeks postnatal age, 20 rats were subjected to MIA injection (3 mg in 50 μL). Each rat was anesthetized with an isoflurane/O2 mixture until the flexor withdrawal reflex was abolished. The surgeon wore a face mask, hair net, lab coat and shoe covers, and gloves that were disinfected with betadine or chlorhexidine between animals. All tools were sterilized with an autoclave. MIA was dissolved in 0.9% (w/v) saline (3 mg in 50 μL). The solution was filtrated with 0.22 μm membrane before administration. After being shaved and disinfected with betadine or chlorhexidine solution, the right knees were injected intra-articularly with 50 μL of MIA using 0.5-in 26-gauge needle, while the contralateral knees received an IA injection of 0.9% saline. After injection, the injected surface was washed with sterile saline solution. All the rats were allowed to move freely in plastic cages until their necropsies at different time points post-MIA injection.
# On day 11, animals were sacrificed using Carbon dioxide (CO2). Cartilage was isolated, flash frozen in liquid Nitrogen and stored at −80° C. until processing for protein extraction.
# THP1 cells = assay: Western blot of phospho- and total proteins in THP1 cells stimulated with LPS; format: cell-based
# Description: Cells were plated at 300,000 cells per well in a 6-well plate and following an overnight incubation, treated with DMSO (vehicle control) or indicated compounds and incubated at 37° C. and 5% CO2 for the indicated times. Following treatment, cells were trypsinized and pelleted by centrifugation and washed with PBS. Total protein from the cell pellet was extracted or for fractionation, protein was fractionated into cytoplasmic and nuclear fractions using a Nuclear and Cytoplasmic Extraction Reagents (NE-PER™) kit containing Halt™ protease and phosphatase inhibitors (Thermo Fisher). Protein concentrations were quantified using the Pierce Micro BCA protein assay kit (Thermo Fisher). […] Blots were blocked with non-fat dry milk. Primary antibodies were incubated overnight at 4° C. β-actin and Lamin B1 were used as loading controls (Supplementary Table S2 for primary antibodies). Mouse and rabbit horseradish peroxidase (HRP)-conjugated secondary antibodies were diluted in 5% blocking buffer in TBS-T. Protein-antibody complexes were detected by chemiluminescence using the SuperSignal West Femto Chemiluminescent Substrate (Thermo Fisher) and images were captured with a UVP ChemiDocIt2 camera system (Fisher Scientific, Hampton, N.H.).
structure (smiles),measurement,setting,value
CC(C)CC(=O)Nc1cncc(-c2ccc3[nH]nc(-c4nc5c(-c6cccc(F)c6)cncc5[nH]4)c3c2)c1 [compound 123],Emax,"[1]; hMSC chondrogenesis, maximum activity relative to TGF-β3 (10 ng/mL) positive control, read-out: Max. Activity as % TGF-β3 activity",397%
same,EC50,[1]; read-out: Conc (nM) of 50% TGF-β3 activity,30 nM
same,protein levels of total FOXO1,[2],increased
same,protein levels of total NF-κB,[2],decreased
same,total protein levels of SRSF1 and STAT3,[2],no changes
same,"phosphorylation of SRSF, NF-κB, STAT3, and FOXO1",[2]; compared to vehicle,decreased
same,"AKT, JNK1, cJUN, p38/MAPK and TLR4","THP1 cells; 4 hrs, compared to DMSO",not inhibited
same,"phospho-STAT3 (S727, Y705), phospho- and total NF-κB (p105/p50), and phospho-FOXO1/3a","THP1 cells; 4 hrs, compared to DMSO",dose-dependently decreased
same,"AKT, cJUN, p38/MAPK, and TLR4",THP1 cells; 20 hrs,remained unchanged
same,"NF-κB, STAT3, JNK1 and FOXO1/3a phosphorylation",THP1 cells; 20 hrs,robustly inhibited
same,phospho- or total NF-κB (p105/p50),"THP1 cells; THP1 cells + LPS, 10 mins, 30 mins, 1 hr or 2 hrs",no effects
same,phospho-STAT3 (Y705),"THP1 cells; THP1 cells + LPS, 1 hr, 2 hrs, 4 hrs and 20 hrs",inhibited
same,phospho- and total NF-κB,"THP1 cells; THP1 cells + LPS, 4 hrs and 20 hrs",decreased
same,total STAT3,"THP1 cells; THP1 cells + LPS, any timepoint",no effects
